The text below walks through data of paper PMC8289188, “Polyoxometalates as Effective Nano-inhibitors of Amyloid Aggregation of Pro-inflammatory S100A9 Protein Involved in Neurodegenerative Diseases” (ACS Applied Materials & Interfaces, 2021).

Like-named read-outs stand apart in the source and are kept apart here.

For experiment [1], the target named is T1, S100A9 (Homo sapiens, UniProt P06702).
T1 construct: native S100A9 expressed in Escherichia coli
T1 sequence (P06702 1-114): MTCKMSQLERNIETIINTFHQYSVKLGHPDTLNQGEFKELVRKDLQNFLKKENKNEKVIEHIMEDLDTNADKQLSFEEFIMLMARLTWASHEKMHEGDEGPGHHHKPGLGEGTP
Briefly: intrinsic Trp88 fluorescence titration; ANS fluorescence titration gave Kd […]; ThT/AFM amyloid inhibition. It is filed as binding.

Experiment [2] concerns the target T1, S100A9. The description is as above. Format: binding. The source holds these as a separate data set.

A word on the Kd: it is the constant that tells how readily two partners part at equilibrium. Nb10 showed a Kd on S100A9 [1] of 2860 ± 390 nM. Consider TiNb9, for which binding on S100A9 [2] was put at a Kd of 2480 ± 200 nM.
